Columns and labels:
MSH3 poison exon 14A [1] = assay: RT-PCR of MSH3 exon 13/PE14A and PE14A/exon 14 amplicons in cynomolgus monkey fibroblasts (FIG. 13); type: cell-based; conditions: 24 hours
Description: (§1) To further validate MSH3 poison exon 14A, RT-PCR was used to analyze MSH3 exon 13/poison exon 14A, and poison exon 14A/exon 14 amplicons. Briefly, Cynomolgus monkey primary dermal fibroblasts (Cellosaurus) and HEK293 cells (ATCC) were cultured in DMEM (ThermoFisher Scientific) supplemented with 10% fetal bovine serum (Avantor) and 0.1 μg/mL Primocin (Invivogen). All cell lines were maintained at sub-confluency and grown in a humidified incubator at 37° C. with 5% CO2. RNA was purified using Qiashredder and RNeasy kits (Qiagen), cDNA was prepared with MultiScribe Reverse Transcriptase (ThermoFisher Scientific) and PCR with GoTaq Green Master Mix (Promega). Primers (IDT) used were the following: Fwd-Exon 13 (5′-[…] (SEQ ID NO: 20)), Rev-PE14A (5′-[…] (SEQ ID NO: 21)), Fwd-PE14A (5′-[…] (SEQ ID NO: 22)), Rev-Exon 14 (5′-[…] (SEQ ID NO: 23)), Fwd-GAPDH (5′-[…] (SEQ ID NO: 24)), Rev-GAPDH (5′-ACCCGTTGACTCCGACCT (SEQ ID NO: 25)).

MSH3 poison exon 14A [2] = assay: RT-PCR of MSH3 exon 13/PE14A and PE14A/exon 14 amplicons in HEK293 cells (FIG. 13); type: cell-based, human; conditions: 24 hours
Description: as §1

MSH3 exons 20/21 mRNA = assay: qPCR of total MSH3 exons 20/21 in HEK293 WT and PE14A CAG clones (FIG. 12A); type: cell-based, human; conditions: HEK293 wild-type clones, 24 hours
Description: (§2) In this example, MSH3 poison exon 14A (PE5) and poison exon 21A (PE4) were validated. Briefly, HEK293 parental and clonal cells (Synthego) were cultured in DMEM (ThermoFisher Scientific) supplemented with 10% fetal bovine serum (Avantor) and 0.1 μg/mL Primocin (Invivogen). All cell lines were maintained at sub-confluency and grown in a humidified incubator at 37° C. with 5% CO2. HEK293 clonal cells were generated by Synthego's proprietary CRISPR methods to replace PE14A 5′ splice site with a strong donor (TGAGTTG>CAGGTTA) at the endogenous locus. Two clones (C3 and H2) were isolated to express 99-100% of the desired knock-in mutation. Two clones were generated from the parental line HEK293 without any editing (wild-type WTl3 and WT7) to be used as controls. […] RNA, cDNA and qPCR was prepared using TaqMan Cells-to-CT Express kit (ThermoFisher Scientific). Taqman assays (ThermoFisher Scientific) were used for quantification of total MSH3 exons 13/14 (cat #4351372, ID #: Hs00988993_ml), total MSH3 exons 20/21 (cat #4351372, ID #: Hs00989000_ml), exon 13/PE14A (Fwd: 5′-[…] (SEQ ID NO: 14); Rev: 5′-[…] (SEQ ID NO: 15); Probe: 5′-[…] (SEQ ID NO: 16)) and exon 20/PE21A (Fwd: 5′-[…] (SEQ ID NO: 17); Rev: 5′-[…] (SEQ ID NO: 18); Probe: 5′-[…] (SEQ ID NO: 19)) mRNA expression. […] Protein concentrations were determined by Rapid Gold BCA (ThermoFisher Scientific). […]

MSH3 exons 13/14 mRNA = assay: qPCR of total MSH3 exons 13/14 in HEK293 WT and PE14A CAG clones (FIG. 11A); type: cell-based, human
Description: as §2

MSH3 protein = assay: Western blot of MSH3 protein in HEK293 WT and PE5 CAG clones (FIG. 12C); type: cell-based, human
Description: as §2

[3] = tested on: MSH3 exon 13/PE14A mRNA (PE5); assay: qPCR of MSH3 PE5 (exon 13/PE14A) in HEK293 WT and PE14A CAG clones (FIG. 11B); type: cell-based, human
Description: as §2

[4] = tested on: MSH3 exon 20/PE21A mRNA (PE4); assay: qPCR of MSH3 PE4 (exon 20/PE21A) in HEK293 WT and PE14A CAG clones (FIG. 12B); type: cell-based, human; conditions: HEK293 wild-type clones, 24 hours
Description: as §2

[5] = HEK293 wild-type clones, 24 hours

Question: With Cc1nn(C)cc1-c1cc(F)c2c(c1)C(=O)N(c1ccc(N(C)[C@H]3C[C@]4(C)CC[C@](C)(C3)N4)nn1)C2 [Compound A] as the compound, how does the 13/PE14A amplicon (MSH3 poison exon 14A [1]) read?
Answer: increase

Question: What about the PE14A/14 amplicon (MSH3 poison exon 14A [1]) of the same compound?
Answer: increase

Question: What about the 13/PE14A amplicon (MSH3 poison exon 14A [2]) of the same compound?
Answer: increase

Question: And the PE14A/14 amplicon (MSH3 poison exon 14A [2])?
Answer: increase

Question: What about the “MSH3 expression (total, exons 20/21)” value (MSH3 exons 20/21 mRNA) of the same compound?
Answer: lowering MSH3 expression

Question: And the “MSH3 expression (total, exons 13/14)” value (MSH3 exons 13/14 mRNA; [5])?
Answer: lowering MSH3 expression

Question: And the “MSH3 expression (total, exons 13/14)” value (MSH3 exons 13/14 mRNA; PE5 CAG clones C3 and H2, 24 hours)?
Answer: No further decrease

Question: What about the MSH3 protein levels (MSH3 protein; PE5 CAG clones) of the same compound?
Answer: decreased in MSH3 levels

Question: What about the MSH3 protein levels (MSH3 protein; wild-type clones) of the same compound?
Answer: decreased in MSH3 levels

Question: What about the PE5-specific expression [3, 5] of the same compound?
Answer: increasing PE5-specific expression

Question: What about the “further increase of PE5” value ([3]; PE5 CAG clones C3 and H2, 24 hours, starting at 0.3-1 μM) of the same compound?
Answer: 20-30%

Question: And the PE4-specific expression [4]?
Answer: increasing PE4-specific expression

Source: US20260315464A1, “COMPOSITIONS, METHODS, AND SYSTEMS FOR MODULATING SPLICING OF MSH3” (REVIR THERAPEUTICS, INC., priority 2023, published 2026)
